# Laboratory results as given in patent US8709738B2, “Methods for predicting cardiac toxicity” (Quintiles Transnational Corporation, priority 2006, dated 2014).
# Values joined by “and” are separate entries in the source; they are usually repeats but may differ in a detail not shown here. Identical values can stand only once. “Also recorded” adds a separate entry of the source.
# Key:
# Au565 cells [1] = experiment: Acylcarnitines (byproducts of mitochondrial fatty acid oxidation) by MS/MS in treated Au565 cells; type: cell-based; details: Au565 cell pellet, GW2974 25 μM, 2 days
# Description: (§1) In addition, tyrosine kinase inhibitors can be used to reduce fat in cells, particularly cells that are otherwise normal or that lack protein tyrosine kinase activity mediated disease. To this end at least a portion of a mammal or tissue can be treated with a kinase inhibitor such that the amount of lipid in the cells is reduced. Any suitable kinase inhibitor can be used. Methods for determining suitable inhibitors are well known. For example, samples of adipocytes can be grown in the presence and absence of a kinase inhibitor and stained with Oil red 0 by known methods to determine whether the kinase inhibitor causes a reduction in stored fat. Those kinase inhibitors that cause an observable reduction in fat storage are suitable for the present invention. Exemplary kinase inhibitors that are suitable for the invention include erbB inhibitors, especially including GW2974, GW572016, and the like. […] Au565 cells were grown under normal conditions known in the art and treated for 2 days with GW2974 (25 μM). The cells were collected, washed and sonicated in water (2,000,000 cells in 200 μL of water). The cells were spun down and were tested for acylcamitines (byproducts of mitochondrial fatty acid oxidation) by MS/MS for intraceullar metabolites.
# Au565 cells [2] = experiment: Microarray mRNA expression profile of Au565 cells treated with GW2974; type: cell-based, human; details: GW2974 25 μM vs untreated
# Description: Au565 cells were grown under normal conditions and were untreated or treated with GW2974 (25 μM). Cells were pelleted, snap frozen in liquid nitrogen and subjected to microarray analysis. RNA was isolated using the Agilent Total RNA Isolation Kit. Cy3 and Cy5 labeled cRNA was prepared using the Agilent Low RNA Input Fluorescent Linear Amplification Kit. Labeled cRNAs were hybridized to a G4110A Human 1A(V2) microarray consisting of 60-mer oligonucleotides representing over 18K well-characterized, full length, human genes.
# Au565 cells [3] = experiment: Oil red lipid staining of Au565 cells; type: cell-based; details: FIG. 2 and FIG. 3
# [4] = tested on: primary human cardiac myocytes; experiment: Lipid staining of cardiomyocytes; type: cell-based; details: FIG. 4
# Description: FIG. 4 are photographs of primary human cardiac myocytes grown under various conditions and stained for lipids.
# FIG. 5 is a bar graph illustrating the percentage of human cardiomyocytes testing positive for lipids under various conditions.
# [5] = tested on: normal fat cells grown in culture; experiment: Lipid stored in cultured fat cells (Oil red O staining); type: cell-based; details: normal fat cells (adipocytes) grown in culture, also cardiac cells
# Description: Such studies can be conducted using Oil red 0 staining for lipids.
# as §1, with “To” for “In addition, tyrosine kinase inhibitors can be used to reduce fat in cells, particularly cells that are otherwise normal or that lack protein tyrosine kinase activity mediated disease. To”, “Those kinase inhibitors that cause an observable reduction in fat storage are suitable for the present invention.” left out
# [6] = tested on: MDA-MB-468 breast cancer cells; experiment: Intracellular calcium detected by Fluoro-4; type: cell-based; details: MDA-MB-468 cells, Fluoro-4, FIG. 6
# Description: FIG. 6 are photographs of MDA-MB-468 cells treated by GW-2974 and intracellular Ca detected by Fluoro-4.
# (§2) This can be seen in MDA-MB-468 breast cancer cells where calcium is detected by fluorescently by Fluoro-4. This redistribution of calcium results in the activation and phosphorylation of AMPK. Activated AMPK represses translation by phosphorylation of the translation factor eEF-2 (FIG. 7), which inactivates eEF-2 and represses protein synthesis, a known effect of TKIs.
# Au565 cells [7] = experiment: Western blot for p-eEF-2; type: cell-based; details: FIG. 7A
# Description: FIG. 7A a photograph of a Western Blot showing the affect of certain tyrosine kinase inhibitors on expression p-eEF2 and p-AMPKα.
# as §2
# Au565 cells [8] = experiment: p-eEF-2 expression by IHC; type: cell-based; details: FIG. 7B
# Description: FIG. 7B is a photograph of stained cells showing the expression of p-eEF2 in Au565 cells in the presence of various compounds.
# cardiomyocytes cells = experiment: ERRα and MCAD in cardiomyocytes treated with kinase inhibitors; type: cell-based; details: FIG. 8
# Description: FIG. 8 is a photograph of ERRα and MCAD in cardiomyocytes cells with and without treatment by various kinase inhibitors.
# ERRα plays a role in lipid metabolism in cardiac cells, and MCAD is an enzyme that breaks down lipids and fatty acids. Mutations in MCAD is a common genetic disorder, especially in those of northern European descent.
# [9] = tested on: HER2-expressing human cardiomyocytes; experiment: AMPK activation, ATP production and TNFα-induced apoptosis in cardiomyocytes; type: cell-based
compound,measurement,setting,value
CN(C)c1cc2c(Nc3ccc4c(cnn4Cc4ccccc4)c3)ncnc2cn1 [GW2974],Acylcarnitines C2,Au565 cells [1],258.88 pmoles of protein
same,Acylcarnitines C16,Au565 cells [1],0.83 pmoles of protein
same,Acylcarnitines C18:1,Au565 cells [1],4.1 pmoles of protein
same,ACAT2: GW2974 change compared to control,Au565 cells [2],−5.3
same,AKAP5: GW2974 change compared to control,Au565 cells [2],−7.3x
same,AVIL: GW2974 change compared to control,Au565 cells [2],4.2x
same,BBOX1: GW2974 change compared to control,Au565 cells [2],5.1
same,CAMK4: GW2974 change compared to control,Au565 cells [2],4.5x
same,CASK: GW2974 change compared to control,Au565 cells [2],−4.2x
same,CCR2: GW2974 change compared to control,Au565 cells [2],−5.0x
same,CD38: GW2974 change compared to control,Au565 cells [2],−4.4x
same,CLCA1: GW2974 change compared to control,Au565 cells [2],−6.7x
same,CLSP: GW2974 change compared to control,Au565 cells [2],−4.0x
same,CYP2C8: GW2974 change compared to control,Au565 cells [2],4.5x
same,ELOVL2: GW2974 change compared to control,Au565 cells [2],−4.4x
same,FABP1: GW2974 change compared to control,Au565 cells [2],−7.2
same,FASN: GW2974 change compared to control,Au565 cells [2],−4.3x
same,FKSG14: GW2974 change compared to control,Au565 cells [2],−4.6x
same,FLJ12476: GW2974 change compared to control,Au565 cells [2],5.0x
same,FREQ: GW2974 change compared to control,Au565 cells [2],−5.3x
same,GLS: GW2974 change compared to control,Au565 cells [2],5.1
same,GNB5: GW2974 change compared to control,Au565 cells [2],−4.1x
same,GSTT2: GW2974 change compared to control,Au565 cells [2],−5.3
same,HPCAL1: GW2974 change compared to control,Au565 cells [2],−4.5x
same,HSPA8: GW2974 change compared to control,Au565 cells [2],−4.2x
same,LDLR: GW2974 change compared to control,Au565 cells [2],−5.2x
same,NRXN3: GW2974 change compared to control,Au565 cells [2],4.58x and 4.6x
same,PFKL: GW2974 change compared to control,Au565 cells [2],−4.7
same,PRKG1: GW2974 change compared to control,Au565 cells [2],6.5x and 6.51x
same,SAT: GW2974 change compared to control,Au565 cells [2],4.4
same,SCN1A: GW2974 change compared to control,Au565 cells [2],4.1x
same,SOAT1: GW2974 change compared to control,Au565 cells [2],−4.0x
same,STK33: GW2974 change compared to control,Au565 cells [2],−5.3x
same,TGFβ1: GW2974 change compared to control,Au565 cells [2],5.31x
same,S100A9: GW2974 change compared to control,Au565 cells [2]; Table IV A,−5.5x
same,S100A9: GW2974 change compared to control,Au565 cells [2]; Table IV C,−5.4
same,lipids in Au565 cells (oil red staining),Au565 cells [3],reduced
same,lipids in cardiomyocyte cells compared with untreated cells,[4],not decrease
same,lipid stored within fat cells,[5],rapidly disappears; also recorded: lose lipid
same,intracellular calcium distribution,[6],redistribution of intracellular calcium
same,p-eEF-2 by western blot,Au565 cells [7],dramatically increased
same,p-eEF-2 expression by IHC,Au565 cells [8],do
same,MCAD expression,cardiomyocytes cells,completely absent
same,AMPK activation,[9],can activate AMPK
same,ATP production,[9],increases ATP production
same,cardiomyocyte apoptosis / cell death induced by TNFα,[9]; TNFα,protecting against apoptosis induced by TNFα
COc1cc2ncnc(Nc3ccc(F)c(Cl)c3)c2cc1OCCCN1CCOCC1 [Iressa],p-eEF-2 expression by IHC,Au565 cells [8],do
CS(=O)(=O)CCNCc1ccc(-c2ccc3ncnc(Nc4ccc(OCc5cccc(F)c5)c(Cl)c4)c3c2)o1 [lapatinib],lipid stored within fat cells,[5],loss of fat
same,lipid stored within fat cells,[5]; listed as GW572016,rapidly disappears
